PMC4762688 (Journal of nuclear medicine : official publication, Society …, 2015)
“Also recorded” adds a separate entry of the source. Bridge positions count the residues as written; N and C are the ends. Square brackets hold non-standard residues; d marks the D form. Peptide text beside a SMILES is read from it. * marks the point of attachment. X1 = O=C(O)CN1CCN(CC(=O)O)CCN(C(CCC(=O)NCc2ccc(CN*)cc2)C(=O)O)CC1; NODAGA = O=C(O)CN1CCN(CC(=O)O)CCN(C(CCC(=O)*)C(=O)O)CC1; Tyr(3-Cl) = N[C@@H](Cc1ccc(O)c(Cl)c1)C(=O)O; X3 = NCCN(CCN)CCC(=O)NCc1ccc(CN*)cc1; Hyp = O=C(O)[C@@H]1C[C@@H](O)CN1; X2 = NCCN(CCN)CCC(=O)*

How the values were obtained:
[1] = target: soluble fibrin fragment DD(E) (Homo sapiens, UniProt P02671+P02675+P02679, DEL433-453); format: binding; details: DD(E) assay
[2] = system: thrombus (mural carotid artery thrombosis); experiment: PET / SPECT imaging in rat carotid crush injury model; format: in vivo
immobilized fibrin = target: T1, immobilized fibrin (Homo sapiens, UniProt P02671+P02675+P02679); experiment: Functional fibrin-binding assay: blood plasma incubated with immobilized fibrin; details: blood samples collected after injection
T1 sequence (P02671 36-629 limits assumed): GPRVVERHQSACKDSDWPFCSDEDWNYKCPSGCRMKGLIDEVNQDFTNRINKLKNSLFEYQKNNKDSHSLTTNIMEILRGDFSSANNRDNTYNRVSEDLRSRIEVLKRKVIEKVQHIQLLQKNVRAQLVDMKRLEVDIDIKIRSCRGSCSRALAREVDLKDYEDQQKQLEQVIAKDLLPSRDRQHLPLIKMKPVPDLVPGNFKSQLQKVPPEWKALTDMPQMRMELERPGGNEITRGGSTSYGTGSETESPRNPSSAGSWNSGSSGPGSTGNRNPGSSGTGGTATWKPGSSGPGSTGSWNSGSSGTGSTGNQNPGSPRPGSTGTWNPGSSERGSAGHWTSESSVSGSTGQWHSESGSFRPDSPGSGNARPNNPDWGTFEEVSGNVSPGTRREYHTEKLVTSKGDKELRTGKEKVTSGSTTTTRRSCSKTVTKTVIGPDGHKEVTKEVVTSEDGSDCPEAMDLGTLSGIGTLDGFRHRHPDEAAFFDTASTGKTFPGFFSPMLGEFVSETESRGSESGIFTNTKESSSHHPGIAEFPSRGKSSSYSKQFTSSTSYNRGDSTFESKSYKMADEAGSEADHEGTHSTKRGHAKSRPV
T1 sequence (P02675 45-491 limits assumed): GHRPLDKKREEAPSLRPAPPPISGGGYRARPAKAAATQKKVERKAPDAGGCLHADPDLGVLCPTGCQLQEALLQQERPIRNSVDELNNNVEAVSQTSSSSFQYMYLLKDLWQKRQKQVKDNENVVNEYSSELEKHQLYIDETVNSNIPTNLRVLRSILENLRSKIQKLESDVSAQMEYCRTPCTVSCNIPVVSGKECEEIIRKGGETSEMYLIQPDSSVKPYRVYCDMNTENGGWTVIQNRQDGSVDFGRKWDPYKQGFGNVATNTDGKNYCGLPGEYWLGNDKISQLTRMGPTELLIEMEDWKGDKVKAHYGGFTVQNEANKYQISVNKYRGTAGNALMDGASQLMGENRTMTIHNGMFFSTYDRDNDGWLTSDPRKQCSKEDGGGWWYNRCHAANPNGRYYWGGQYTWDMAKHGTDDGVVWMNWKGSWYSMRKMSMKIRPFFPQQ
T1 sequence (P02679 27-437 isoform P02679-2 limits assumed): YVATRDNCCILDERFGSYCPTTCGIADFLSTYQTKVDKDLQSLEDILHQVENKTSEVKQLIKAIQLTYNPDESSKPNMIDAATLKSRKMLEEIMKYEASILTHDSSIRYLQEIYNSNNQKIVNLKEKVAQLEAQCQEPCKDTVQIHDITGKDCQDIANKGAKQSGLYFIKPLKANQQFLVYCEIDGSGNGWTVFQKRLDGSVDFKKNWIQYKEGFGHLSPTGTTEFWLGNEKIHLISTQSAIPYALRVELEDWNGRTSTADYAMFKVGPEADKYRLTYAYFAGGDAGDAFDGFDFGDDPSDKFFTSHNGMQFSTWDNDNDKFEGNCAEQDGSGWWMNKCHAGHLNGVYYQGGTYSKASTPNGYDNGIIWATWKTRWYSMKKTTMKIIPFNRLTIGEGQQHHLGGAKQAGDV

125I-labeled thrombus = experiment: Triple-isotope SPECT/PET/CT imaging with 125I-labeled thrombus; format: in vivo, rat; details: ferric chloride model
[3] = Blood clearance / pharmacokinetics from serial blood samples
[4] = system: thrombus (mural carotid artery thrombosis); experiment: Ex vivo biodistribution; details: crush model, biodistribution at 120 minutes

Structure (SMILES) | displacement of the fluorescent probe [1] | thrombus detection on PET / SPECT images [2] | fibrin binding of blood samples (plasma incubated with immobilized fibrin) (immobilized fibrin) | localization to 125I-labeled thrombus (SPECT/PET) (125I-labeled thrombus) | half-life ([3]; male, Sprague-Dawley, rat, in vivo, iv) [min] | clearance of radioactivity from blood ([3]; serial blood draws 0 to 120 minutes p.i.) | thrombus uptake [4]
CC[C@H](C)[C@H](NC(=O)[C@H](Cc1c[nH]cn1)NC(=O)[C@@H]1CSSC[C@@H](NC(=O)[C@H](Cc2c[nH]cn2)NC(=O)[C@H](Cc2ccccc2)NC(=O)CCC(C(=O)O)N2CCN(CC(=O)O)CCN(CC(=O)O)CC2)C(=O)N2C[C@H](O)C[C@H]2C(=O)N[C@@H](Cc2ccc(O)c(Cl)c2)C(=O)N[C@@H](CC(=O)O)C(=O)N[C@@H](CC(C)C)C(=O)N1)C(=O)N[C@@H](CC(C)C)C(=O)NCc1ccc(CNC(=O)CCC(C(=O)O)N2CCN(CC(=O)O)CCN(CC(=O)O)CC2)cc1 (stereo partly drawn) [^64Cu-D-Cys-FBP8, metal not drawn] ({NODAGA}-FH[dC][Hyp][Tyr(3-Cl)]DLCHIL-X1; disulfide 3-8) | no displacement | no uptake in the thrombus | does not bind to fibrin; also recorded: significantly lower binding | did not reveal significant uptake at the target site | – | – | –
CC[C@H](C)[C@H](NC(=O)[C@H](Cc1c[nH]cn1)NC(=O)[C@@H]1CSSC[C@H](NC(=O)[C@H](Cc2c[nH]cn2)NC(=O)[C@H](Cc2ccccc2)NC(=O)CCN(CCN)CCN)C(=O)N2C[C@H](O)C[C@H]2C(=O)N[C@@H](Cc2ccc(O)c(Cl)c2)C(=O)N[C@@H](CC(=O)O)C(=O)N[C@@H](CC(C)C)C(=O)N1)C(=O)N[C@@H](CC(C)C)C(=O)NCc1ccc(CNC(=O)CCN(CCN)CCN)cc1 [^99mTc-FBP16, metal not drawn] (X2-FHC[Hyp][Tyr(3-Cl)]DLCHIL-X3; disulfide 3-8) | – | ineffective | – | – | 5.9 ± 16.2 | residual radioactivity persisting in the blood even after 120 minutes | low target uptake
